How the values were obtained:
[1] = tested on: ethylene-induced epinasty in Patio variety tomato plants; test: Tomato epinasty test, volatile gas treatment; assay type: in vivo; conditions: for Gas @ 10 ppm: visual rating of protection against ethylene-induced epinasty: gas 10 ppm v/v, 10 ppm ethylene, scale 0 to 10 (10 = complete protection); for Gas @ 1000 ppm: visual rating of protection against ethylene-induced epinasty: gas 1000 ppm v/v, 10 ppm ethylene after 4 h, scored 16 h later, scale 0 (no protection) to 10 (complete protection)
Description: (§1) Objective: The test procedure is designed to determine the ability of an experimental compound to block the epinastic growth response induced by ethylene in tomato plants when the experimental compound is administered either as a volatile gas or as a component of a spray solution.
(§2) Treatment chambers are of an appropriate size for the test plants and are airtight. Each is fitted with a reusable septum to be used for injection of ethylene. Test plants are Patio variety tomato seedlings planted two plants per three inch square plastic pot.
Volatile gas treatment entails placing two pots of Patio var. tomatoes into a polystyrene 4.8 L volume treatment chamber along with one-half (upper or lower section) of a 50×9 mm plastic Petri dish containing a Gelman filter pad. The appropriate amount of experimental compound, dissolved in 1.0 ml acetone, is pipetted onto the filter pad and the chamber immediately sealed. Four hours later ethylene gas equal to 10 ppm v/v final concentration is injected into the sealed chamber. Sixteen hours later the chambers are opened in an exhaust hood, allowed to air and the plants scored visually for the degree of protection against ethylene-induced epinasty conferred by the experimental compound when compared to ethylene treated and untreated controls on a scale of 0 to 10. A rating of 10 means complete protection. A rating of 0 means no protection from the effects of ethylene. Gas treatment concentrations are volume/volume.

[2] = tested on: ethylene-induced epinasty in Patio variety tomato plants; test: Tomato epinasty test, spray application treatment; assay type: in vivo; conditions: spray 10 ppm in 10% acetone/90% water, 0.05% Silwett L-77; 10 ppm ethylene; scale 0 to 10 (10 = complete protection)
Description: as §1, §2
Spray application treatment entails using a DeVilbiss atomizer to completely cover all foliage and stems of two pots of Patio var. tomato plants with the appropriate amount of experimental compound dissolved in 10% acetone/90% water with 0.05% Silwett L-77 surfactant. Plants are air-dried in a drying hood for four hours then transferred to a 4.8 L polystyrene chamber which is sealed.
Ethylene gas equal to 10 ppm v/v final concentration is injected into the sealed chamber. Sixteen hours later the chambers are opened in an exhaust hood, allowed to air and the plants scored visually for the degree of protection against ethylene-induced epinasty conferred by the experimental compound when compared to ethylene treated and untreated controls on a scale of 0 to 10. A rating of 10 means complete protection. A rating of 0 means no protection from the effects of ethylene.

O=S(=O)(OCCC1=CC1)c1ccccc1 [Compound 10, 2-(2-Benzenesulfonyloxyethyl)-cyclopropene]
Gas @ 10 ppm: visual rating of protection against ethylene-induced epinasty [1]: 10 | Spray @10 ppm: visual rating of protection against ethylene-induced epinasty [2]: 10

CS(=O)(=O)OCCCCCCCC1=CC1 [Compound 69, 1-(7-Methanesulfonyloxyheptyl)-cyclopropene]
Gas @ 10 ppm: visual rating of protection against ethylene-induced epinasty [1]: 0 | Gas @ 1000 ppm: visual rating of protection against ethylene-induced epinasty [1]: 8 | Spray @10 ppm: visual rating of protection against ethylene-induced epinasty [2]: 0

C1=C(CCCCCCCn2ccnc2)C1 [Compound 12, 7-(1-Imidazole)-1-heptylcyclopropene]
Gas @ 10 ppm: visual rating of protection against ethylene-induced epinasty [1]: 5.5 | Gas, tested at 850 ppm: rating of protection against epinasty ([1]; gas 850 ppm (footnote b or in cell), scale 0 to 10): 10^b | Spray @10 ppm: visual rating of protection against ethylene-induced epinasty [2]: 3.5

CCCCCCCCC1=C(B(O)O)C1 [Compound 86, 2-Octyl-1-(boronic acid)-cyclopropene]
Gas @ 10 ppm: visual rating of protection against ethylene-induced epinasty [1]: 10 | Spray @10 ppm: visual rating of protection against ethylene-induced epinasty [2]: 0

C[Si](C)(C)CCCCCCC1C=C1 [Compound 65, 6-(Trimethylsilyl)-hexylcycloprop-2-ene]
Gas @ 10 ppm: visual rating of protection against ethylene-induced epinasty [1]: 10 | Spray @10 ppm: visual rating of protection against ethylene-induced epinasty [2]: 6

O=C(OCCCCCCCC1=CC1)C1CCCO1 (stereo not drawn) [Compound 54]
Gas @ 10 ppm: visual rating of protection against ethylene-induced epinasty [1]: 0 | Gas @ 1000 ppm: visual rating of protection against ethylene-induced epinasty [1]: 2 | Spray @10 ppm: visual rating of protection against ethylene-induced epinasty [2]: 0

CC1=C(Cc2ccccc2)C1 [Compound 8, 1-methyl-2-benzylcyclopropene]
Gas @ 10 ppm: visual rating of protection against ethylene-induced epinasty [1]: 0 | Gas @ 1000 ppm: visual rating of protection against ethylene-induced epinasty [1]: 10 | Spray @10 ppm: visual rating of protection against ethylene-induced epinasty [2]: 0

CCC1=C(n2cc(Br)cn2)C1 [Compound 11, 2-(1-(4-Bromopyrazole))-1-ethylcyclopropene]
Gas @ 10 ppm: visual rating of protection against ethylene-induced epinasty [1]: 2 | Gas, tested at 600 ppm: rating of protection against epinasty ([1]; gas 600 ppm (footnote a), scale 0 to 10): 8^a | Spray @10 ppm: visual rating of protection against ethylene-induced epinasty [2]: 0

CS(=O)(=O)Oc1ccc(C(=O)OCCCCCCCC2=CC2)cc1 [Compound 53, 1-(7-(4-Methanesulfonyloxyphenyl)-carbonyloxyheptyl)-cyclopropene]
Gas @ 10 ppm: visual rating of protection against ethylene-induced epinasty [1]: 0 | Gas @ 1000 ppm: visual rating of protection against ethylene-induced epinasty [1]: 10 | Spray @10 ppm: visual rating of protection against ethylene-induced epinasty [2]: 0

— US20110190137A1, “METHOD TO INHIBIT ETHYLENE RESPONSES IN PLANTS” (priority 2003, published 2011)
